The results in this text go back to patent publication EP4725941A1, “ARYLAMIDE DERIVATIVE HAVING ANTITUMOR ACTIVITY” (priority 2020, dated 2021).

Where two headings read alike, the source gives them in different places.

For one data set, the target named is T1, MEK1 (Homo sapiens, UniProt Q02750).
T1 construct: purchased Thermo Fisher Scientific Inc. (MEK1, CRAF); Carna Biosciences, Inc. (ERK2)
Briefly: MEK1-inhibiting activity, fluorescent polarization method (CRAF/MEK1/ERK2 cascade, IMAP). The class given is biochemical. On the procedure: The MEK1-inhibiting activity of the compounds listed in Table 3 below were evaluated by the fluorescent polarization method as described below.

The target in a further data set is T2, BRAF (Homo sapiens, UniProt P15056).
T2 construct: purchased Eurofins Genomics KK; (BRAF); Thermo Fisher Scientific Inc. (MEK1)
T2 sequence (P15056 417-766 limits assumed): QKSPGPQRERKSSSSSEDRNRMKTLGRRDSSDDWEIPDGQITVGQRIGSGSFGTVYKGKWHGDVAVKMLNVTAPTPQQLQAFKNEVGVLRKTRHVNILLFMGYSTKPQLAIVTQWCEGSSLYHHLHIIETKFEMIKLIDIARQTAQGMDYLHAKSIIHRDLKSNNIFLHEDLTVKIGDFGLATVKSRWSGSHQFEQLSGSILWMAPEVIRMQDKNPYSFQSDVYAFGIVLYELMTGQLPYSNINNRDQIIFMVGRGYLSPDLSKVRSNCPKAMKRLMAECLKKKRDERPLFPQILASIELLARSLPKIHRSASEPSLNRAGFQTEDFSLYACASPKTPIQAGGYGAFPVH
Briefly: BRAF-inhibiting activity, time-resolved fluorescence-fluorescence resonance energy transfer assay. In kind it is biochemical. As to the method: The BRAF-inhibiting activity of the compounds listed in Table 3 below was evaluated by the time-resolved fluorescence-fluorescence resonance energy transfer assay as described below.

The test system of another data set is A549. The experiment in a line: Cell proliferation-inhibiting activity (ATP in viable cells, CellTiter-Glo), A549. In kind it is cell-based, human. Particulars: A549, 96 h; human lung cancer cells, 4 days; read-out: A549 IC50.
In another data set the test system is Calu-6. Briefly: Cell proliferation-inhibiting activity (ATP in viable cells, CellTiter-Glo), Calu-6. Particulars: Calu-6, 96 h; human lung cancer cells, 4 days; read-out: Calu-6 IC50. In kind it is cell-based, human. Background: Cellular ATP, detected with luciferase, serves as a proxy for viable cell number.
The next data set has as its system NCI-H2122. Briefly: Cell proliferation-inhibiting activity (ATP in viable cells, CellTiter-Glo), NCI-H2122. The class given is cell-based, human. Particulars: NCI-H2122, 96 h; human lung cancer cells, 4 days; read-out: NCI-H2122 IC50.
A short description of data set [1]: Human liver microsome stability. In kind it is in vitro ADME. The following applies: human liver microsomes, pH 7.4.

T1 sequence (Q02750 whole entry): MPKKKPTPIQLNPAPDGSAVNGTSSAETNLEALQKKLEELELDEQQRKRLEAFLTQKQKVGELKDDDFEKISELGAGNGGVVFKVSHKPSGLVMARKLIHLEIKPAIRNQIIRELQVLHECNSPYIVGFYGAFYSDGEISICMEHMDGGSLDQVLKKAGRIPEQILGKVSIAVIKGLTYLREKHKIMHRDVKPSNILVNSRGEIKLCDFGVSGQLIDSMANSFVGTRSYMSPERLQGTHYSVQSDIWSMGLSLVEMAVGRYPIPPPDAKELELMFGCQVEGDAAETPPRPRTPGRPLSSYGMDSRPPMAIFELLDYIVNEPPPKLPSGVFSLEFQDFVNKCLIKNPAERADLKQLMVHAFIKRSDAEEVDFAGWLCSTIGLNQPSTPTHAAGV

`CNS(=O)(=O)Nc1nccc(Cc2cc(C(=O)N[C@H]3C[C@H]3C)c(Nc3ccc(I)cc3F)c(F)c2F)c1F` (racemic) [Compound B-4, 3,4-Difluoro-2-(2-fluoro-4-iodoanilino)-5-[[3-fluoro-2-(methylsulfamoylamino)pyridin-4-yl]methyl]-N-[(1S, 2R)-(+/-)-2-methylcyclopropyl]benzamide (racemate)]: the IC50 on MEK1 is 19 nM; on BRAF (Table 3; read-out: BRAF IC50), 5 nM; in the data set with A549, 2 nM; in the data set on Calu-6, 6 nM; with NCI-H2122, 1 nM. Moreover, the microsomal CLint at 0.99 µM in data set [1] came out at 28 µL/min/mg.
As to `NS(=O)(=O)Nc1cccc(Cc2cc(C(=O)NC3CC3)c(Nc3ccc(I)cc3F)c(F)c2F)c1F` [Compound D-7, N-Cyclopropyl-3,4-difluoro-2-(2-fluoro-4-iodoanilino)-5-[[2-fluoro-3-(sulfamoylamino)phenyl]methyl]benzamide], the IC50 on MEK1 (Table 3, read-out: MEK1 IC50) stood at 282 nM; at BRAF (read-out: BRAF IC50; Table 3), 4 nM; in the data set with A549 it was 3 nM; in the data set with Calu-6, 9 nM; with NCI-H2122, 2 nM. This molecule also returned a microsomal CLint at 0.99 µM in data set [1] of 11 µL/min/mg.
Regarding `CC(C)(C)NS(=O)(=O)Nc1nccc(Cc2cc(C(N)=O)c(Nc3ccc(I)cc3F)c(F)c2F)c1F` [Compound A-37, 5-[[2-(tert-Butylsulfamoylamino)-3-fluoropyridin-4-yl]methyl]-3,4-difl uoro-2-(2-fluoro-4-iodoanilino)benzamide], the IC50 is 50 nM at MEK1 (Table 3, read-out: MEK1 IC50); 7 nM at BRAF (read-out: BRAF IC50; Table 3); 21 nM in the data set with A549; 26 nM in the data set on Calu-6; 7 nM in the data set with NCI-H2122. Also, the microsomal CLint at 0.99 µM in data set [1] worked out at 10 µL/min/mg.
On to `CNS(=O)(=O)Nc1cccc(Cc2cc(C(=O)NC3CC3)c(Nc3ccc(I)cc3F)n(C)c2=O)c1F` [Compound K-4, N-Cyclopropyl-2-(2-fluoro-4-iodoanilino)-5-[[2-fluoro-3-(methylsulfamoylamino)phenyl]methyl]-1-methyl-6-oxopyridine-3-carboxamide], for which the IC50 was 106 nM at MEK1 (Table 3, read-out: MEK1 IC50); 11 nM on BRAF (read-out: BRAF IC50; Table 3); 6 nM with A549; 25 nM in the data set with Calu-6; 5 nM with NCI-H2122. Also, the microsomal CLint at 0.99 µM in data set [1] is 129 µL/min/mg.
Consider `CC(C)CS(=O)(=O)Nc1cccc(Cc2cc(C(N)=O)c(Nc3ccc(I)cc3F)c(F)c2F)c1F` [Compound E-17, 3,4-Difluoro-2-(2-fluoro-4-iodoanilino)-5-[[2-fluoro-3-(2-methylpropylsulfonylamino)phenyl]methyl]benzamide], for which the IC50 was determined as 199 nM on MEK1 (Table 3, read-out: MEK1 IC50); 6 nM at BRAF (read-out: BRAF IC50; Table 3); 31 nM in the data set with A549; 110 nM in the data set with Calu-6; 7 nM with NCI-H2122. The microsomal CLint at 0.99 µM in data set [1] was 24 µL/min/mg.
For `O=C(NC1CC1)c1cc(Cc2ccnc(NS(=O)(=O)NC3CC3)c2F)c(F)c(F)c1Nc1ccc(I)cc1F` [Compound A-5, N-Cyclopropyl-5-[[2-(cyclopropylsulfamoylamino)-3-fluoropyridin-4-yl]methyl]-3,4-difluoro-2-(2-fluoro-4-iodoanilino)benzamide], the IC50 at MEK1 (Table 3, read-out: MEK1 IC50) amounted to 10 nM; at BRAF (read-out: BRAF IC50; Table 3) it was 5 nM; with A549, 5 nM; with Calu-6 it was 12 nM; in the data set on NCI-H2122 it was 1 nM. The molecule further yielded a microsomal CLint at 0.99 µM in data set [1] of 36 µL/min/mg.
Regarding `CC(C)S(=O)(=O)Nc1cccc(Oc2cncc(Nc3ccc(I)cc3F)c2C(N)=O)c1` [Ref-3, 3-(2-Fluoro-4-iodoanilino)-5-[3-(propan-2-ylsulfonylamino)phenoxy]py ridine-4-carboxamide, reference compound], the IC50 at MEK1 (Table 3, read-out: MEK1 IC50) was 5 nM; on BRAF (read-out: BRAF IC50; Table 3), 12 nM; in the data set with A549 it was 2 nM; with Calu-6, 10 nM; with NCI-H2122, 1 nM. The molecule also returned a microsomal CLint at 0.99 µM in data set [1] of 11 µL/min/mg.
As for `CCS(=O)(=O)Nc1cccc(Cc2cc(C(=O)NOC(C)(C)C)c(Nc3ccc(I)cc3F)c(F)c2F)c1F` [Compound E-2, 5-[[3-(Ethylsulfonylamino)-2-fluorophenyl]methyl]-3,4-difluoro-2-(2-fluoro-4-iodoanilino)-N-[(2-methylpropan-2-yl)oxy]benzamide], the IC50 on MEK1 (Table 3, read-out: MEK1 IC50) was 86 nM; on BRAF (read-out: BRAF IC50; Table 3), 22 nM; with A549, 6 nM; in the data set with Calu-6 it was 19 nM; in the data set with NCI-H2122, 2 nM. Further, the microsomal CLint at 0.99 µM in data set [1] stood at 42 µL/min/mg.
In the case of `CNS(=O)(=O)Nc1nccc(Cc2cc(C(=O)NOC)c(Nc3ccc(I)cc3F)c(F)c2F)c1F` [Compound A-13, 3,4-difluoro-2-(2-fluoro-4-iodoanilino)-5-[[3-fluoro-2-(methylsulfamoylamino)pyridin-4-yl]methyl]-N-methoxybenzamide], the IC50 on MEK1 (Table 3, read-out: MEK1 IC50) was found to be 1 nM; on BRAF (read-out: BRAF IC50; Table 3), 3 nM; in the data set with A549, 1 nM; with Calu-6 it was 3 nM; with NCI-H2122, 0.3 nM. The microsomal CLint at 0.99 µM in data set [1] is 31 µL/min/mg.
For the molecule `Cn1c(Nc2ccc(I)cc2F)c(C(=O)NC2CC2)cc(Cc2cccc(NS(=O)(=O)NC3CC3)c2F)c1=O` [Compound K-5, N-Cyclopropyl-5-[[3-(cyclopropylsulfamoylamino)-2-fluorophenyl]methyl]-2-(2-fluoro-4-iodoanilino)-1-methyl-6-oxopyridine-3-carboxamide], the IC50 turned out to be 139 nM at MEK1 (Table 3, read-out: MEK1 IC50); 9 nM at BRAF (read-out: BRAF IC50; Table 3); 25 nM in the data set on A549; 110 nM with Calu-6; 23 nM in the data set on NCI-H2122. Further, in data set [1], the microsomal CLint at 0.99 µM was found to be 245 µL/min/mg.
Take `NS(=O)(=O)Nc1nccc(Cc2cc(C(=O)NC3CC3)c(Nc3ccc(I)cc3F)c(F)c2F)c1F` [Compound A-3, N-Cyclopropyl-3,4-difluoro-2-(2-fluoro-4-iodoanilino)-5-[[3-fluoro-2-(sulfamoylamino)pyridin-4-yl]methyl]benzamide]: the IC50 worked out at 31 nM at MEK1 (Table 3, read-out: MEK1 IC50); 5 nM on BRAF (read-out: BRAF IC50; Table 3); 25 nM in the data set on A549; 28 nM in the data set with Calu-6; 13 nM in the data set on NCI-H2122. In addition, in data set [1], the microsomal CLint at 0.99 µM is 10 µL/min/mg.
Regarding `CC(C)NS(=O)(=O)Nc1nccc(Cc2cc(C(N)=O)c(Nc3ccc(I)cc3F)c(F)c2F)c1F` [Compound A-31, 3,4-difluoro-2-(2-fluoro-4-iodoanilino)-5-[[3-fluoro-2-(propan-2-ylsulfamoylamino)pyridin-4-yl]methyl]benzamide], the IC50 worked out at 49 nM at MEK1 (Table 3, read-out: MEK1 IC50); 6 nM at BRAF (read-out: BRAF IC50; Table 3); 20 nM in the data set on A549; 31 nM with Calu-6; 7 nM in the data set with NCI-H2122. In addition, the microsomal CLint at 0.99 µM in data set [1] stood at 9 µL/min/mg.
As for `CNS(=O)(=O)Nc1cccc(Cc2cc(C(N)=O)c(Nc3ccc(I)cc3F)c(F)c2F)c1F` [Compound E-7, 3,4-difluoro-2-(2-fluoro-4-iodoanilino)-5-[[2-fluoro-3-(methylsulfamoylamino)phenyl]methyl]benzamide], the IC50 was 334 nM at MEK1 (Table 3, read-out: MEK1 IC50); 6 nM at BRAF (read-out: BRAF IC50; Table 3); 1 nM in the data set with A549; 8 nM in the data set on Calu-6; 0.4 nM in the data set with NCI-H2122. In addition, the microsomal CLint at 0.99 µM in data set [1] is 5 µL/min/mg.

Usually IC50 stands for the concentration that gives 50% inhibition. As a reminder, the microsomal CLint is the rate of metabolic loss divided by the concentration. Read a low microsomal CLint as greater metabolic stability.
